Tests used:
[1] = tested on: AMPA (alpha -amino-3-hydroxy-5-methyl-4-isoxazolepropionic acid) receptor; details: cited from earlier work
[2] = Physical stability in mixing operation in the presence of water or water-ethanol (1:1) mixed solution; format: physicochemical; details: room temperature, then dried at about 60° C.
Procedure: Physical Stability in Mixing-Operation in the Presence of Water or Water-Ethanol (1:1) Mixed Solution
About 150 mg of respective crystals are placed in an agate mortar, and the mixing operation is carried out at room temperature for a few minutes while the dropwise addition of water (or water-ethanol (1:1) mixed solution) continues.
Subsequently, respective crystals are dried at about 60° C. for 2 to 3 hours.

[3] = Influence of change in temperature on Hydrate crystal (powder X-ray diffraction); format: physicochemical; details: 30 to 100 to 30° C.; returns to Hydrate when the temperature was lowered
Procedure: (§1) Influence of Change in Temperature and Humidity on Hydrate Crystal
(§2) Rigaku X-ray DTA system: RINT-2000 manufactured by Rigaku Corporation
(§3) Crystals obtained in Example 5 (Hydrate crystal) were ground in a mortar and then sampled on a 13-mm diameter glass plate. Measurement was carried out under the conditions below.
Scanning range (2θ): 5 to 40°
Measurement temperature was changed as follows in turn and powder X-ray diffraction patterns were measured at the respective temperatures in sequence: 30→40→50→60→70→80→100→70→60→50→40 and 30° C.

[4] = Influence of change in humidity on Hydrate crystal (powder X-ray diffraction); format: physicochemical; details: 4 to 90 to 5% RH
Procedure: as §1, §2, §3
Measurement humidity was changed as follows in turn and powder X-ray diffraction patterns were measured at the respective humidities in sequence: […]

[5] = Lower explosion concentration limit (blown-up type dust explosion test); format: physicochemical; details: 24° C., humidity 49%, ignition discharge energy 10 J
Excerpt: (§4) Minimum Ignition Energy and Lower Explosion Concentration Limit
(§5) An appropriate amount of Hydrate crystal corresponding to a concentration was uniformly put on sample dish of blown-up type dust explosion test apparatus. 50 kPa of air was compressed in a 1.3 L pressure tank, and the air was introduced into a glass cylinder by opening of a solenoid operated valve to form dust clouds. A discharge electrode was supplied with energy after 0.1 seconds after the opening of the solenoid operated valve. The criterion of ignition is an arrival of flame at an ignition mark set 100 mm above the discharge electrode.
(2) Measurement Conditions for Lower Explosion Concentration Limit
(§6) Temperature of the measurement room: 24° C.
(§7) Popping pressure of compressed air: 50 kPa
(§8) Ignition start time: 0.1 sec
Repetition of ignition test: 5 times
Ignition discharge energy: 10 J
(§9) Blown-up type dust explosion test apparatus (Environmental Technology Co., Ltd. DES -10)

[6] = Minimum ignition energy (blown-up type dust explosion test); format: physicochemical; details: 24° C., humidity 49%, dust concentration 1250 g/m^3
Excerpt: as §4, §5
(3) Measurement Conditions for Minimum Ignition Energy
as §6, §7, §8
Repetition of ignition test: 10 times
as §9

[7] = Chargeability (static potential of the powder after stirring); format: physicochemical; details: about 1 g stirred for 30 minutes with fluoroplastic-coated stirring bar
Procedure: About 1 g of respective compounds is weighed into a weighing bottle (diameter of 35 mm). A stifling bar [fluoroplastic (tetrafluoroethylene resin) coating; 20 mm] is placed in the bottle and after the lid is in place, the powders are stirred for 30 minutes. The lid is opened at the same time that stirring is stopped; and the static potential of the powder is measured using a static potential measuring instrument.
STATIRON-DZ3 manufactured by Shishido Electrostatic, Ltd.

| Compound | change in crystal form during mixing operation (powder X-ray diffraction) [2] | static potential of the powder (chargeability) [7] | further results |
| --- | --- | --- | --- |
| N#Cc1ccccc1-c1cc(-c2ccccn2)cn(-c2ccccc2)c1=O [Compound (A), 3-(2-cyanophenyl)-5-(2-pyridyl)-1-phenyl-1,2-dihydropyridin-2-one] | – | – | antagonistic action against AMPA receptor [1]: significant antagonistic action |
| N#Cc1ccccc1-c1cc(-c2ccccn2)cn(-c2ccccc2)c1=O.O [Example 5, 3-(2-cyanophenyl)-5-(2-pyridyl)-1-phenyl-1,2-dihydropyridin-2-one hydrate] | no change in crystal form | 0 V | temperature at which Hydrate crystal transforms to Anhydrous crystal form III [3]: ≥ 60 °C; humidity under which crystals stay Hydrate crystal [4]: ≥ 10 % RH; humidity under which Hydrate crystal changes to Anhydrous crystal form III ([4]; reversible): ≤ 10 % RH; Lower Explosion Concentration Limit [5]: 160-170 g/m^3; Minimum Ignition Energy [6]: 50 to 100 mJ |
| N#Cc1ccccc1-c1cc(-c2ccccn2)cn(-c2ccccc2)c1=O [Example 6, 3-(2-cyanophenyl)-5-(2-pyridyl)-1-phenyl-1,2-dihydropyridin-2-one] | no change in crystal form | – | – |
| N#Cc1ccccc1-c1cc(-c2ccccn2)cn(-c2ccccc2)c1=O [Example 7, 3-(2-cyanophenyl)-5-(2-pyridyl)-1-phenyl-1,2-dihydropyridin-2-one] | no change in crystal form | – | – |
| N#Cc1ccccc1-c1cc(-c2ccccn2)cn(-c2ccccc2)c1=O [Reference Example 1, 3-(2-cyanophenyl)-5-(2-pyridyl)-1-phenyl-1,2-dihydropyridin-2-one, reference compound] | underwent a change in crystal form | 70-100 V | – |

Reference: patent US9045426B2, “Method for producing 1,2-dihydropyridine-2-one compound” (EISAI R&D MANAGEMENT CO., LTD., priority 2004, dated 2015)
